SMILES strings stand for the structures. Where only a bound is given, the exact number is not on record here.

The target in the first assay is T1, USP25 (USP25-His6, Boston Biochem E-546) (Homo sapiens, UniProt Q9UHP3).
T1 construct: His6 (C); purchased Boston Biochem E-546
T1 sequence (Q9UHP3 1-1055): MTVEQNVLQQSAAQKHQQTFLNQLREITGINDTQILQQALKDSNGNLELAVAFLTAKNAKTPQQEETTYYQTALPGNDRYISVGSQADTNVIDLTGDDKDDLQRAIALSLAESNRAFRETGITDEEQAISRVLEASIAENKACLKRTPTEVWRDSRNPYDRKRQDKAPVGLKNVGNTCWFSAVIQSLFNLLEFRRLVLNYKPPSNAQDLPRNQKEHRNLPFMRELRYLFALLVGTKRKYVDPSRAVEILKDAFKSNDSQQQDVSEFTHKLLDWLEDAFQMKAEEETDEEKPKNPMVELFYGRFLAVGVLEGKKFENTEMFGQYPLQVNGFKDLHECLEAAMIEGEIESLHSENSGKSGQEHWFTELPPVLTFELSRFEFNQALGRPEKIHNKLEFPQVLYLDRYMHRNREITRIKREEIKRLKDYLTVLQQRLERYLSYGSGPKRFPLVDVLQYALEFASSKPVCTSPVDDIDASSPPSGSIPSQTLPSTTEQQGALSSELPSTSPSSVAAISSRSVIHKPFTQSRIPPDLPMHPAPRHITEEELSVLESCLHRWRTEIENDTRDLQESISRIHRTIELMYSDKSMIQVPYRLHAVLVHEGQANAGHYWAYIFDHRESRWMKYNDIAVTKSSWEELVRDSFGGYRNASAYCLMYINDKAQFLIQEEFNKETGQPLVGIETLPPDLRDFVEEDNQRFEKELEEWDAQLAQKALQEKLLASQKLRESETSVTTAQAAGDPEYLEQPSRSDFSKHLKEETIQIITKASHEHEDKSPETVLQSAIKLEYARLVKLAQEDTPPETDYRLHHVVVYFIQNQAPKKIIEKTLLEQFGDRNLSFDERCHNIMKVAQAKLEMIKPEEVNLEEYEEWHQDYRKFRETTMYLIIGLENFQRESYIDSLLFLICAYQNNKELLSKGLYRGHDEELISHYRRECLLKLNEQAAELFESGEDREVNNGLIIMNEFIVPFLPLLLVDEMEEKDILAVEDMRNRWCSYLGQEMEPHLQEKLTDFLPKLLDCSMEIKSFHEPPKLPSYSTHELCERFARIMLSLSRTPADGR
Description: Ubiquitin-Rhodamine 110 Assay for USP25 Activity, Example A-3. The assay is classed as biochemical. The note with it: Ubiquitin-Rhodamine 110 assay, Example A-3; IC50 ranges; read-out: USP25 A-3 IC50. The procedure, abridged: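 USP25-His6 ([…] final as stated) preincubated 30 min with compound (10-point, 25 μM to 1.3 nM), then Ub-Rh110 at 25 nM (<<Km) added in pH 8.0 Tris buffer with BME, BGG and Triton X-100. Reaction stopped after 45 min at room temperature with 10 mM citric acid; fluorescence read at 485/535 nm.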
Regarding `N#Cc1c(N2CC3CCC(C2)N3)cc(F)c2c1OC[C@H](NC(=O)c1cnc3c(c1)[C@@H]1CC1CN3)C2` (stereo partly drawn) [Example 228, (6aS,7aR)-N-[(3R)-8-cyano-7-(3,8-diazabicyclo[3.2.1]octan-3-yl}-5-fluoro-3,4-dihydro-2H-1-benzopyran-3-yl]-5H,6H,6aH,7H,7aH-cyclopropa[c]1,8-naphthyridine-2-carboxamide], the IC50 fell in the range of 200 to 2000 nM.

Staying with this assay, now noted: Ubiquitin-Rhodamine 110 assay, Example A-3; read-out: USP25 A-3 IC50 range.
For `Cc1cnc2c(N)c(C(=O)N[C@@H]3CCc4c(C#N)c(N5CC6CCC(C5)N6)cc(F)c4C3)sc2n1` (single isomer, unassigned) [Example 14-20], the IC50 was > 2000 nM.
For `Cc1ccc2c(N)c(C(=O)N[C@H]3CCc4cc(N5CC6CNCC(C5)O6)cc(F)c4C3)sc2n1` (single isomer, unassigned) [Example 11-39], the IC50 was > 2000 nM.
On to `CO[C@H]1CN(c2ccc3c(c2)OC[C@H](NC(=O)c2sc4nc(C)cnc4c2N)C3)C[C@@H]1N` [Example 117], for which the IC50 lay within 200 to 2000 nM.
For `Cc1ccc2c(N)c(C(=O)N[C@H]3COc4cc(N5C[C@H]6CC[C@@H]5CN6)ncc4C3)sc2n1` [Example 76, N-((R)-7-((1R,4R)-2,5-diazabicyclo[2.2.2]octan-2-yl)-3,4-dihydro-2H-pyrano[3,2-c]pyridin-3-yl)-3-amino-6-methylthieno[2,3-b]pyridine-2-carboxamide], the IC50 was in the range of 50 to 200 nM.
With `CN[C@@H]1CCN(c2ccc3c(c2)CC[C@H](NC(=O)c2sc4nc(C)cnc4c2N)C3)C1` (single isomer, unassigned) [Example 11-27], the IC50 was in the range of 200 to 2000 nM.
As for `CN[C@H]1CN(c2ccc3c(n2)CC[C@H](NC(=O)c2sc4nc(C)ccc4c2N)C3)C[C@H]1CF` [Example 441, 3-amino-N-[(6S)-2-[(3R,4R)-3-(fluoromethyl)-4-(methylamino)pyrrolidin-1-yl]-5,6,7,8-tetrahydroquinolin-6-yl]-6-methylthieno[2,3-b]pyridine-2-carboxamide], the IC50 is > 2000 nM.
Regarding `Cc1cnc2c(N)c(C(=O)N[C@@H]3CCc4cc(N5C[C@@H]6C[C@H]5CN6)ccc4C3)sc2n1` (single isomer, unassigned) [Example 11-30], the IC50 fell in the range of 200 to 2000 nM.
Turning to `Cc1nc2sc(C(=O)N[C@H]3CCc4cc(N5CCNCC5)ccc4C3)c(N)c2s1` (single isomer, unassigned) [Example 11-33], the IC50 was in the range of 200 to 2000 nM.
Regarding `CO[C@H]1CN(c2cc(F)c3c(c2C#N)CC[C@@H](NC(=O)c2sc4nc(C)ccc4c2N)C3)C[C@@H]1N` (single isomer, unassigned) [Example 14-24], the IC50 is > 2000 nM.

The assay is the same for the next values; noted with them: biochemical IC50 range, Ubiquitin-Rhodamine 110 assay, Example A-3; read-out: USP25 A-3.
Turning to `Cc1ccc2c(N)c(C(=O)N[C@H]3COc4cc(N5C[C@@H](N)[C@](C)(CF)C5)ccc4C3)sc2n1` [Example 661, 3-amino-N-[(3R)-7-[(3R,4S)-4-amino-3-(fluoromethyl)-3-methylpyrrolidin-1-yl]-3,4-dihydro-2H-1-benzopyran-3-yl]-6-methylthieno[2,3-b]pyridine-2-carboxamide], the IC50 lay within 50 to 200 nM.
Turning to `O=C(N[C@H]1COc2cc(N3CCNCC3)ccc2C1)c1ccc(NCc2ccc(Cl)cc2Cl)nc1` [Example 697, 6-{[(2,4-dichlorophenyl)methyl]amino}-N-[(3R)-7-(piperazin-1-yl)-3,4-dihydro-2H-1-benzopyran-3-yl]pyridine-3-carboxamide], the IC50 lay within 1 to 50 nM.

For the origin of these results see US12162888B2, “Carboxamides as ubiquitin-specific protease inhibitors” (Valo Early Discovery, Inc., priority 2018, dated 2024).
